Data published in patent publication US20210163404A1, “NOVEL UREA COMPOUNDS AND BIOISOSTERES THEREOF AND THEIR USE FOR TREATING INFLAMMATION AND INFLAMMATION-RELATED PATHOLOGIES” (UNIVERSITÉ LAVAL, priority 2017, published 2021).

What was measured:
[1] = tested on: A549 adenocarcinoma alveolar epithelial cancer cells; assay: Antiproliferative activity (NCI procedure, sulforhodamine B), A549; assay type: cell-based, human; details: Homo sapiens, A549, unit inferred, tested 781 nM to 100 μM, 48 h
Method: (§1) The antiproliferative activity of compounds 3a-b, 4a-e, 5a-e and 6a-e was subsequently evaluated using the human HT-29 colon adenocarcinoma and the A549 adenocarcinoma alveolar epithelial cancer cell lines, the HaCaT spontaneously transformed aneuploid immortal keratinocyte cell line and the HDFn neonatal dermal fibroblast cell line (Table 2). Cell growth inhibition was assessed according to the NCI/NIH Developmental Therapeutics Program.
(§2) The antiproliferative activity assay of all compounds was assessed using the procedure recommended by the National Cancer Institute for its drug screening program with minor modifications. Briefly, 96-well microtiter plates were seeded with 75 μL of a suspension of either HaCaT (5×10^3), HT-29 (3.0×10^3), A549 (3.0×10^3) or HDFn (3×10^3) cells per well in DMEM and incubated for 24 h at 37° C. in a moisture-saturated atmosphere containing 5% CO2. Compounds freshly solubilized in DMSO (40 mM) were diluted in fresh DMEM, and 75 μL aliquots containing serially diluted concentrations of the compound were added. Final compound concentrations ranged from 100 μM to 781 nM. DMSO was maintained at a concentration of <0.5% (v/v) to avoid any related cytotoxicity. Plates were subsequently incubated for 48 h. Cell growth was then stopped by the addition of cold trichloroacetic acid to the wells (10% w/v, final concentration), followed by a 1 h incubation period at 4° C. The plates were washed 4-times with water. A sulforhodamine B solution (75 μL; 0.1% w/v) in acetic acid (1%) was subsequently added to each well and the plates incubated over a 15 min period while at room temperature. After staining, any unbound dye was removed by washing 4-times with an acetic acid solution (1%). Bound dye was solubilized in 20 mM Tris base and the absorbance was measured at an optimal wavelength (530-568 nm) using a μQuant® Universal microplate spectrophotometer (BioTek, Winooski, Vt.). The measurements for treated cells were compared with measurements from control cell plates fixed on treatment day and the percentage of cell growth inhibition was calculated for each drug. The experiments were performed at least twice in triplicate. The assays were considered valid when the coefficient of variation for a given set of conditions and within the same experiment was <10%.

[2] = tested on: HDFn neonatal dermal fibroblast cell line; assay: Antiproliferative activity (NCI procedure, sulforhodamine B), HDFn; assay type: cell-based, human; details: Homo sapiens, Fibroblast, unit inferred, tested 781 nM to 100 μM, 48 h
Method: as §1, §2

[3] = tested on: HaCaT keratinocyte cell line; assay: Antiproliferative activity (NCI procedure, sulforhodamine B), HaCaT; assay type: cell-based, human; details: Homo sapiens, HaCaT, unit inferred, tested 781 nM to 100 μM, 48 h
Method: as §1, §2

[4] = tested on: HT-29 colon adenocarcinoma cells; assay: Antiproliferative activity (NCI procedure, sulforhodamine B), HT-29; assay type: cell-based, human; details: Homo sapiens, HT-29, unit inferred, tested 781 nM to 100 μM, 48 h
Method: as §1, §2

Row | SMILES | melting point [°C] | IC50 ([1]; Table 8) [µM] | IC50 ([2]; Table 8) [µM] | IC50 ([3]; Table 8) [µM] | IC50 ([4]; Table 8) [µM] | IC50 ([1]; Table 5) [µM] | IC50 ([2]; Table 5) [µM] | IC50 ([3]; Table 5) [µM] | IC50 ([4]; Table 5) [µM] | also measured
1 | S=C(Nc1ccc(C2CCCCC2)cc1)NC1CC1 [Compound 93] | 157 to 165 | 20.8 | 84 | 84.7 | 30.8 | – | – | – | – | –
2 | S=C(Nc1cccc(C2CCCCC2)c1)NC1CC1 [Compound 105] | 122 to 128 | 15.9 | 14.7 | 16.3 | 12.7 | – | – | – | – | –
3 | CCCNC(=O)Nc1ccc(C(C)(C)C)cc1 [Compound 9] | 147 to 151 | – | – | – | – | 67.1 | 10.5 | > 100 | 54.9 | –
4 | CC(C)NC(=O)Nc1cccc(C2CCCCC2)c1 [Compound 16] | 178 to 181 | – | – | – | – | > 100 | 30.5 | > 100 | > 100 | –
5 | CCNC(=S)Nc1ccc(C(C)(C)C)cc1 [Compound 94] | 109 to 115 | 71.1 | 94 | > 100 | 92 | – | – | – | – | –
6 | CC(C)(C)c1ccc(NC(=S)NC2CC2)cc1 [Compound 95] | 119 to 143 | 57.9 | 60 | 94.5 | 64.4 | – | – | – | – | –
7 | O=C(Nc1cccc(C2CCCCC2)c1)NC1CC1 [Compound 67] | 138 to 144 | – | – | – | – | – | – | – | – | IC50 ([1]; Table 6): 37 µM; IC50 ([2]; Table 6): 25 µM; IC50 ([3]; Table 6): 17 µM; IC50 ([4]; Table 6): 26 µM
8 | S=C(Nc1ccc(I)cc1)NC1CC1 [Compound 101] | 166 to 180 | 65.1 | > 100 | > 100 | 63.3 | – | – | – | – | –
9 | CCCNC(=O)Nc1ccc(I)cc1 [Compound 3] | 197 to 199 | – | – | – | – | 82.7 | 81.3 | 94.9 | 51.9 | –
10 | CC(C)(C)NC(=O)Nc1ccc(I)cc1 [Compound 2] | 179 to 199 | – | – | – | – | 37.1 | 27.1 | 44.7 | 32.9 | –
11 | CC(C)NC(=O)Nc1ccc(C(C)(C)C)cc1 [Compound 7] | 152 to 155 | – | – | – | – | 83.2 | 57.4 | > 100 | 74.2 | –
12 | S=C(Nc1cccc(I)c1)NC1CC1 [Compound 103] | 142 to 152 | > 100 | > 100 | > 100 | > 100 | – | – | – | – | –
13 | CC(C)NC(=O)Nc1cccc(I)c1 [Compound 4] | 153 to 156 | – | – | – | – | 80.3 | 59.1 | 94.5 | > 100 | –
14 | S=C(NCC1CCC1)Nc1cccc(I)c1 [Compound 99] | 136 to 147 | 26.2 | 19.4 | 35.5 | 27 | – | – | – | – | –
15 | S=C(NCC1CCC1)Nc1cccc(C2CCCCC2)c1 [Compound 106] | 102 to 110 | 17 | 4.9 | 14.9 | 13.2 | – | – | – | – | –
16 | CC(C)(C)c1ccc(NC(=S)NCC2CCC2)cc1 [Compound 96] | 129 to 146 | 23.3 | > 100 | > 100 | 44 | – | – | – | – | –
17 | CC(C)(C)c1ccc(NC(=S)NC2CCCC2)cc1 [Compound 97] | 142 to 154 | 26.2 | 22.6 | 40 | 28.8 | – | – | – | – | –
18 | CC(C)NC(=O)Nc1ccc(C2CCCCC2)cc1 [Compound 13] | 163 to 170 | – | – | – | – | 60.8 | 59.1 | > 100 | 56.9 | –
19 | COCCNC(=O)Nc1ccc(I)cc1 [Compound 26, 1-(4-Iodophenyl)-3-(2-methoxyethyl)urea] | 141 to 143 | – | – | – | – | – | – | – | – | –
20 | CC(C)(C)c1cccc(NC(=O)NCC2CCCC2)c1 [Compound 49] | 113 to 114 | – | – | – | – | – | – | – | – | –
21 | COCCNC(=O)Nc1cccc(C(C)(C)C)c1 [Compound 52, 1-(3-(t-Butyl)phenyl)-3-(2-methoxyethyl)urea] | 119 to 120 | – | – | – | – | – | – | – | – | –
